Measurements as given in PubChem BioAssay (NCI).
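Results reflect a 48-hour exposure of cells in 96-well plates to compound at five concentrations. TGI marks complete inhibition of growth.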

Columns and labels:
Test in all cases: inhibition of tumour cell growth, NCI panel, 48 h
KM12 colon = system: KM12 colon
HOP-62 NSCLC = system: HOP-62 NSCLC
OVCAR-4 ovarian = system: OVCAR-4 ovarian
NCI-H226 lung = system: NCI-H226 lung
SK-MEL-28 melanoma = system: SK-MEL-28 melanoma
IGROV1 ovarian = system: IGROV1 ovarian
TK-10 renal = system: TK-10 renal
SK-MEL-2 melanoma = system: SK-MEL-2 melanoma
M14 melanoma = system: M14 melanoma
HS 578T breast = system: HS 578T breast

Compound	TGI (KM12 colon)	TGI (HOP-62 NSCLC)	TGI (OVCAR-4 ovarian)	TGI (NCI-H226 lung)	TGI (SK-MEL-28 melanoma)	TGI (IGROV1 ovarian)	TGI (TK-10 renal)	TGI (SK-MEL-2 melanoma)	TGI (M14 melanoma)	TGI (HS 578T breast)
CCCCCCNC(=O)CCC(NC(=O)c1ccc(N(C)Cc2cnc3nc(N)nc(N)c3n2)cc1)C(=O)NCCCCCC (stereo not given)	> 100 µM	> 100 µM	> 100 µM	> 100 µM	> 100 µM	97.2 µM	> 100 µM	> 100 µM	> 100 µM	–
CSCCCS/C1=C/CCCCCCCCCC1	> 100 µM	> 100 µM	> 100 µM	> 100 µM	> 100 µM	> 100 µM	> 100 µM	> 100 µM	> 100 µM	> 100 µM
O=c1oc2ccc([N+](=O)[O-])cc2c(Nc2ccc3c(c2)Sc2ccccc2O3)c1[N+](=O)[O-]	49.8 µM	44.7 µM	98.2 µM	35.8 µM	69.2 µM	54.9 µM	58.3 µM	40.4 µM	41.6 µM	90.9 µM
COC(=O)/C=C\C(C#N)(C#N)N=Cc1ccccc1	33.4 µM	34 µM	13.5 µM	21 µM	14.3 µM	25.9 µM	5.54 µM	32.9 µM	5.41 µM	36.2 µM
COc1cc(C2SC(C)C(=O)N2c2ccc(-c3csc(NS(=O)(=O)c4ccc(Cl)c(OC)c4)n3)cc2)ccc1O (stereo not given)	48.3 µM	> 100 µM	79.9 µM	> 100 µM	> 100 µM	> 100 µM	> 100 µM	> 100 µM	> 100 µM	> 100 µM
COc1ccc(/C=C/C(=O)c2cc(C(C)(C)C)c(O)c(C(C)(C)C)c2)cc1OC	> 59.4 µM	> 100 µM	> 92.9 µM	43 µM	> 100 µM	> 100 µM	47.4 µM	16.5 µM	> 100 µM	> 77.2 µM
CCOC(=O)c1nc2ccccc2nc1Oc1ccc(C(=O)OC)cc1	> 100 µM	> 100 µM	> 100 µM	> 100 µM	> 100 µM	> 100 µM	> 100 µM	> 100 µM	> 100 µM	> 100 µM
COC(=O)CCc1ccc2c(c1)C(=O)CC2	–	> 100 µM	> 100 µM	–	> 100 µM	> 100 µM	> 100 µM	> 100 µM	> 100 µM	> 100 µM
O=[N+]([O-])c1ccccc1S(=O)(=O)c1ccccc1	> 100 µM	> 100 µM	> 100 µM	> 100 µM	> 100 µM	> 100 µM	> 100 µM	> 100 µM	> 100 µM	–
Brc1ccc2c3c1[C@H]1O[C@H]1c1cccc(c1-3)[C@@H]1O[C@H]21	28.8 µM	30.3 µM	28.8 µM	64 µM	36.5 µM	–	37.4 µM	41.6 µM	32.4 µM	59.5 µM
COc1cc2cc(C(=O)N3CC(CCl)c4c3cc(NC(=O)OCc3ccc([N+](=O)[O-])cc3)c3ccccc43)[nH]c2c(OC)c1OC (stereo not given)	> 74.2 µM	> 100 µM	> 100 µM	> 100 µM	> 100 µM	> 90 µM	–	> 100 µM	> 100 µM	> 100 µM
CC1(C)C(=O)c2ccccc2OC1N1CCN(C2Oc3ccccc3C(=O)C2(C)C)CC1 (stereo not given)	> 100 µM	> 100 µM	> 100 µM	> 100 µM	> 100 µM	> 100 µM	> 100 µM	–	> 100 µM	> 100 µM
Oc1ccc(Cl)cc1-c1cc(-c2ccccc2)nc(NCN2CCCCC2)n1	> 100 µM	> 100 µM	> 100 µM	–	> 100 µM	> 100 µM	> 100 µM	> 100 µM	> 100 µM	> 100 µM
O=C(O)C[C@@H]1[C@@H](O)[C@@H](O)CN2C(=O)c3ccccc3[C@H]12	> 100 µM	> 100 µM	> 100 µM	> 100 µM	> 100 µM	> 100 µM	> 100 µM	> 100 µM	> 100 µM	–
COc1ccc2c(c1)C/C(=C\c1cccc3ccccc13)C2=O	> 100 µM	–	> 100 µM	59.7 µM	> 100 µM	> 100 µM	> 100 µM	–	> 100 µM	> 100 µM
C(=Nc1ccc(-c2nc3ccccc3[nH]2)cc1)c1ccc[nH]1	> 100 µM	> 100 µM	> 100 µM	–	> 100 µM	> 100 µM	> 100 µM	> 100 µM	> 100 µM	> 100 µM
O=C(CCCCCC(=O)N1CC(CCl)c2ccc([N+](=O)[O-])cc21)N1CC(CCl)c2ccc([N+](=O)[O-])cc21 (stereo not given)	> 100 µM	> 100 µM	> 100 µM	> 100 µM	–	> 100 µM	> 100 µM	> 100 µM	> 100 µM	> 100 µM
C[n+]1c(-c2ccc(/C=N/Nc3ccnc(N/N=C/c4ccc(-c5cn6ccsc6[n+]5C)cc4)n3)cc2)cn2ccsc21	> 100 µM	80.2 µM	> 100 µM	60.6 µM	–	> 100 µM	> 100 µM	85.9 µM	54.7 µM	> 100 µM
CN(CCO)CCCC1COc2ccccc2O1 (stereo not given)	–	> 100 µM	> 100 µM	> 100 µM	> 100 µM	> 100 µM	> 100 µM	–	> 100 µM	–
CCCCCCCC(CC(=O)NC(CO)C(=O)NC(CO)CC(C)C)OC(=O)CC(CCCCCCC)OC(=O)CC(CCCCCCC)OC1OC(C)C(O)C(OC2OC(C)C(O)C(O)C2OC(C)=O)C1O (stereo not given)	10.8 µM	27.1 µM	19.9 µM	39 µM	21.6 µM	23 µM	26 µM	–	18.7 µM	19.1 µM
C=CCN1C(=O)/C(=C/c2ccco2)N=C1SC1OC(COC(C)=O)C(OC(C)=O)C(OC(C)=O)C1OC(C)=O (stereo not given)	> 100 µM	> 100 µM	> 100 µM	> 100 µM	> 100 µM	> 100 µM	> 100 µM	> 100 µM	–	–
